Data published in the NIST ThermoML archive (doi:10.1016/j.jct.2005.02.003).

Experiment: molar heat capacity at constant pressure
Settings: 101.33 kPa

CC(C)COC(C)(C)C [isobutyl tert-butyl ether]
Settings | molar heat capacity at constant pressure [J/K/mol]
5 K, Crystal | 0.38
7.68 K, Crystal | 1.339
8.33 K, Crystal | 1.743
8.97 K, Crystal | 2.217
9.61 K, Crystal | 2.779
10 K, Crystal | 3.042
10.26 K, Crystal | 3.32
11.02 K, Crystal | 4.139
11.92 K, Crystal | 5.166
12.83 K, Crystal | 6.289
13.74 K, Crystal | 7.45
14.65 K, Crystal | 8.714
15 K, Crystal | 9.221
15.57 K, Crystal | 10.02
16.48 K, Crystal | 11.42
17.41 K, Crystal | 12.82
18.34 K, Crystal | 14.27
19.27 K, Crystal | 15.69
20 K, Crystal | 16.85
20.2 K, Crystal | 17.2
21.22 K, Crystal | 18.77
22.29 K, Crystal | 20.45
23.35 K, Crystal | 22.1
24.42 K, Crystal | 23.8
25 K, Crystal | 24.7
25.49 K, Crystal | 25.53
26.55 K, Crystal | 27.09
27.63 K, Crystal | 28.56
28.7 K, Crystal | 30.12
29.77 K, Crystal | 31.74
30 K, Crystal | 32.07
30.84 K, Crystal | 33.37
31.91 K, Crystal | 34.71
32.98 K, Crystal | 36.13
34.05 K, Crystal | 37.59
35 K, Crystal | 38.76
35.12 K, Crystal | 38.89
36.19 K, Crystal | 40.25
37.26 K, Crystal | 41.63
38.34 K, Crystal | 42.83
39.41 K, Crystal | 44.07
40 K, Crystal | 44.8
40.47 K, Crystal | 45.31
41.54 K, Crystal | 46.53
42.6 K, Crystal | 47.83
43.66 K, Crystal | 48.91
44.72 K, Crystal | 50.25
45 K, Crystal | 50.39
45.78 K, Crystal | 51.18
46.84 K, Crystal | 52.39
47.9 K, Crystal | 53.45
48.96 K, Crystal | 54.66
50 K, Crystal | 55.71
50.01 K, Crystal | 55.57
51.07 K, Crystal | 56.57
52.12 K, Crystal | 57.81
53.17 K, Crystal | 59.02
54.22 K, Crystal | 60.27
55 K, Crystal | 60.91
55.27 K, Crystal | 61.56
56.31 K, Crystal | 63.16
57.36 K, Crystal | 64.51
58.41 K, Crystal | 64.56
59.46 K, Crystal | 65.29
60 K, Crystal | 66.03
63.63 K, Crystal | 70.22
64.68 K, Crystal | 70.75
65 K, Crystal | 71.08
65.72 K, Crystal | 72.16
66.76 K, Crystal | 73.11
67.8 K, Crystal | 74.04
68.84 K, Crystal | 74.44
69.88 K, Crystal | 75.46
70 K, Crystal | 76.09
70.92 K, Crystal | 76.66
71.95 K, Crystal | 77.53
74.01 K, Crystal | 79.84
75 K, Crystal | 81.05
75.04 K, Crystal | 81.32
76.07 K, Crystal | 82.23
77.1 K, Crystal | 83.09
79.16 K, Crystal | 85.64
80 K, Crystal | 85.97
80.19 K, Crystal | 86.55
80.42 K, Glass | 91.54
80.56 K, Crystal | 86.3
81.22 K, Crystal | 87.3
81.39 K, Glass | 92.71
82.25 K, Crystal | 88.55
82.32 K, Glass | 93.45
83.28 K, Crystal | 89.21
83.29 K, Glass | 95.2
83.57 K, Crystal | 89.05
84.28 K, Glass | 95.95
85 K, Crystal | 90.88
85.22 K, Glass | 97.36
86.13 K, Glass | 97.2
86.51 K, Crystal | 92.54
87.04 K, Glass | 98.86
87.51 K, Crystal | 93.29
87.98 K, Glass | 100.5
88.51 K, Crystal | 93.95
88.93 K, Glass | 101.4
89.5 K, Crystal | 95.12
89.88 K, Glass | 102.9
90 K, Crystal | 95.78
90.5 K, Crystal | 96.03
90.83 K, Glass | 103.8
91.51 K, Crystal | 97.11
91.79 K, Glass | 104.5
92.51 K, Crystal | 98.28
92.74 K, Glass | 105.8
93.5 K, Crystal | 99.11
93.68 K, Glass | 107.3
94.49 K, Crystal | 100.2
94.62 K, Glass | 107.9
95 K, Crystal | 100.6
95.48 K, Crystal | 101.4
95.55 K, Glass | 107.9
96.48 K, Crystal | 102.4
96.51 K, Glass | 109.8
97.47 K, Crystal | 103.3
97.47 K, Glass | 111.7
98.41 K, Glass | 112.7
98.47 K, Crystal | 104.1
99.31 K, Glass | 114.5
99.46 K, Crystal | 105
100 K, Crystal | 105.4
100.2 K, Glass | 113.8
100.45 K, Crystal | 105.8
101.1 K, Glass | 115.2
101.44 K, Crystal | 106.9
101.97 K, Glass | 117.3
102.44 K, Crystal | 108.1
102.84 K, Glass | 117.8
103.44 K, Crystal | 108.7
103.72 K, Glass | 119
104.44 K, Crystal | 109.5
104.61 K, Glass | 120.2
105.43 K, Crystal | 110.5
105.51 K, Glass | 121.5
106.41 K, Crystal | 111.5
106.42 K, Glass | 123.1
107.34 K, Glass | 124.7
107.39 K, Crystal | 112.7
108.29 K, Glass | 126.4
108.37 K, Crystal | 113.4
109.25 K, Glass | 128.9
109.35 K, Crystal | 114.2
110 K, Crystal | 114.9
110.23 K, Glass | 130
110.32 K, Crystal | 115.2
111.21 K, Glass | 134
111.31 K, Crystal | 116
112.18 K, Glass | 138.9
112.29 K, Crystal | 117
113.14 K, Glass | 146.1
113.28 K, Crystal | 117.8
114.06 K, Glass | 162.4
114.26 K, Crystal | 118.6
114.91 K, Glass | 193.9
115.24 K, Crystal | 119.6
115.82 K, Liquid | 198.1
116.22 K, Crystal | 120.5
116.8 K, Liquid | 199.6
117.2 K, Crystal | 121.3
117.8 K, Liquid | 200
118.17 K, Crystal | 122.1
118.8 K, Liquid | 200.4
119.15 K, Crystal | 123.1
119.8 K, Liquid | 200.7
120 K, Crystal | 124
120.12 K, Crystal | 124.2
120.79 K, Liquid | 201
121.09 K, Crystal | 124.8
121.77 K, Liquid | 201.5
122.76 K, Liquid | 202
123.02 K, Crystal | 126.6
123.76 K, Liquid | 202.1
123.99 K, Crystal | 127.8
124.76 K, Liquid | 202.3
124.96 K, Crystal | 128.5
125.75 K, Liquid | 202.9
125.92 K, Crystal | 129.5
126.75 K, Liquid | 202.9
126.91 K, Crystal | 130.2
127.1 K, Crystal | 130.5
127.74 K, Liquid | 203.5
127.9 K, Crystal | 130.9
128.73 K, Liquid | 204.2
128.89 K, Crystal | 131.3
129.13 K, Crystal | 131.9
129.7 K, Liquid | 204.7
130 K, Crystal | 132.7
130.13 K, Crystal | 132.5
130.64 K, Liquid | 204.9
131.57 K, Liquid | 205
132.12 K, Crystal | 134.9
132.51 K, Liquid | 205.5
133.1 K, Crystal | 135.4
133.45 K, Liquid | 205.9
134.08 K, Crystal | 135.9
134.39 K, Liquid | 206.2
135.33 K, Liquid | 206.4
136.02 K, Crystal | 137.6
136.26 K, Liquid | 206.9
136.98 K, Crystal | 138.6
137.2 K, Liquid | 207.9
137.94 K, Crystal | 138.9
138.89 K, Crystal | 140
139.84 K, Crystal | 140.1
140 K, Crystal | 140.5
